Results reported in article PMC11009648, “Development of an orally bioavailable mSWI/SNF ATPase degrader and acquired mechanisms of resistance in prostate cancer” (Proceedings of the National Academy of Sciences of the …, 2024).
Entries after “also recorded” stand apart in the source; their conditions may differ. Where two headings read alike, the source gives them in different places.

Key:
[1] = test system: VCaP castration-resistant tumor model; experiment: CRPC-VCaP xenograft efficacy study; assay type: in vivo
Experimental: Six-week-old CB17 (male) SCID mice were obtained from the breeding colony at the U-M. For all studies, tumors were measured two or three times per week using digital calipers, and tumor volumes were calculated using the formula (π/6) (L × W2), where L is length and W is width of the tumor. At study endpoint, mice were killed, and tumors were extracted and weighed. […] Once tumors grew to a palpable size (~400 mm^3), the mice were physically castrated. Once those tumors regained their precastration size, mice were then randomized and treated with either 15 mg/kg AU-24118 or vehicle by oral gavage 3 d per week with or without enzalutamide (10 mg/kg) by oral gavage 5 d per week for 4 wk.
IHC was performed on 4 µm formalin-fixed, paraffin-embedded tissue sections using BRG1 (SMARCA4), AR, FOXA1, ERG and C-Myc. The IHC process was performed on the Ventana ULTRA automated slide staining system using the Omnimap and Ultraview Universal DAB detection kit. The antibody details are provided in SI Appendix, Table S1. The following commercial kits from Roche-Ventana Medical System were used: Discovery CC1 (Cat No. 950-500), Discovery CC2 (Cat No. 950-123), OptiView Universal DAB Detection Kit (Cat No. 760-700), and OmniMap Universal DAB Detection Kit (Cat No. 760-149).
The TUNEL and In Situ Cell Death Detection Kits (TMR Red #12156792910; Roche Applied Science) were used to examine apoptosis, following the manufacturer’s instructions. Briefly, fixed sections were permeabilized with Triton X-100 and then washed in phosphate-buffered saline. Labeling was carried out at 37 °C for 60 min by addition of a reaction buffer that contained enzymes. A Zeiss Axiolmager M1 microscope was used to obtain images.

22Rv1 AUR-3 cells = experiment: CellTiter-Glo cell viability assay in AU-15330-resistant 22Rv1 AUR-3 cells (ABCB1 overexpression); assay type: cell-based, human
Text: The rising importance of the mSWI/SNF complex as a therapeutic target and the success ([32], [33]) of developing next-generation PROTAC degraders targeting the mSWI/SNF complex prompted us to proactively study potential resistance mechanisms that cancer cells may develop in response to this class of compounds. To achieve this, we cultured 22Rv1 cells in either DMSO or a lethal dose of AU-15330 for 1 mo, refreshing the drug twice a week, until resistant cells emerged. Upon obtaining a population of resistant cells, we unbiasedly characterized the genomic and transcriptomic alterations using whole-exome sequencing and bulk RNA sequencing (RNA-seq), respectively (Fig. 3A).
Cells were seeded onto 96-well plates in appropriate culture media and allowed to adhere overnight prior to treatment. The next day, a nine-point serial dilution of the compounds was prepared and added to the plates. After treatment, the cells were then incubated for an additional 5 d. On the last day of treatment, the CellTiter-Glo cell viability assay (Promega) was then executed in accordance with the manufacturer’s guidelines. The signal (luminescence) from each well was determined using an Infinite M1000 Pro plate reader (Tecan). Relative viability was determined by dividing the signal from each well by the average of the control condition in each experiment. Finally, the data were analyzed and plotted using GraphPad Prism.

[2] = Toxicity and maximum tolerated dose in tumor-free CB17 SCID mice; assay type: in vivo
Experimental: To evaluate the preclinical safety of AU-24118, we conducted extensive toxicity analyses with AU-24118 in mice. First, to establish the maximum tolerated dose, we implemented a dosage escalation experiment in CB17 SCID (severe combined immunodeficiency) tumor-free mice.
We further characterized the host organ (spleen, kidney, and liver) morphology and function upon AU-24118 treatment at the maximum tolerated dose (15 mg/kg) in CB17 SCID mice. […] Additionally, we evaluated liver and kidney function using a blood panel on a separate cohort of CB17 SCID mice that underwent 25 d treatment with AU-24118 at the maximum tolerated dose.
Organs (liver, spleen, and kidney) were harvested from mice and fixed in neutral buffered formalin (10%) and subsequently embedded in paraffin to generate tissue blocks. These blocks were then sectioned at a thickness of 4 µm and stained using Harris hematoxylin (Leica Surgipath) and alcoholic eosin-Y stain (Leica Surgipath). Staining was executed using the automated Leica autostainer-XL platform. Upon staining, the sections were subsequently analyzed by two pathologists on a brightfield microscope to determine morphology and architectural coherence. These pathological assessments were performed in a blinded manner. Detailed and comprehensive analysis of cellular and -subcellular level changes of organs were performed as previously described ([16]).

[3] = In vivo pharmacokinetics in mice; conditions: plasma; for Cmax: read-out: Cmax/C0
Text: All experimental procedures relating to animal care, handling, and treatment were approved by the Institutional Animal Ethics Committee of Aurigene Oncology Ltd. based on the Committee for Control and Supervision of Experiments on Animals guidelines. Animals were included for experimentation after 1 wk of acclimatization to standard laboratory conditions and were provided with reverse osmosis-treated water and rodent pellet diet ad libitum.
The pharmacokinetic profile of AU-24118 was studied in both mice and rats. For assessment of oral bioavailability, AU-24118 was administered by intravenous (i.v.) and oral (p.o.) routes at 1 mg/kg and 30 mg/kg doses, respectively (n = 3). For the oral arm, AU-24118 was administered as a solution formulation in 10% PEG200, 50% of 20% D-α-Tocopherol polyethylene glycol 1000 succinate and 40% of 1% Tween-80 in water while AU-24118 was formulated in 2% DMA and 10% HPβCD in saline (qs) for the intravenous administration.
Concentrations of AU-24118 were determined in plasma samples using a nonvalidated (fit for purpose) LC–MS/MS method in positive Multiple Reaction Monitoring mode with transition pair of m/z: 633.11→344.00. Either Carbamazepine (with a transition pair of m/z: 237.07→194.10) or Telmisartan (with a transition pair of m/z: 515.16→276.00) were used as internal standards. Sample processing was carried out by protein precipitation followed by evaporation method. Compound concentrations were calculated using Analyst® software 1.7.2 with linear/quadratic regression algorithm (with 1/×2 weighting factor) over a quantification range of 1 ng/mL to 2,500 ng/mL with the low and high ends of this range defining the lower limit of quantitation and upper limit of quantitation, respectively.

[4] = after 5 d of treatment, 15 mg/kg
[5] = mouse, iv, CD1 Mice, I.V. 1mg/kg
[6] = mouse, po, CD1 Mice, P.O. 30mg/kg
[7] = mouse, mice, oral, 10mg/kg, dose escalation (Fig. 1G)
[8] = mouse, mice, oral, 30mg/kg, dose escalation (Fig. 1G)

Q: With Nc1nnc(-c2ccccc2O)cc1-c1ccc(N2CCC(N3CCC(c4ccc(OC5CCC(=O)NC5=O)cc4)CC3)CC2)cc1 (centres unmarked) [AU-24118] as the compound, how does the body weight changes ([1]; CRPC VCaP xenograft mice, throughout the treatments) read?
A: no significant body weight changes

Q: What about the “apoptosis in tumors (cleaved PARP, TUNEL)” value [1, 4] of the same compound?
A: induced apoptosis

Q: What about the “downregulation of direct targets (SMARCA2, SMARCA4, PBRM1) and lineage proteins (AR, ERG, C-Myc, PSA) in tumors, Western blot” value [1, 4] of the same compound?
A: robust downregulation

Q: What about the tumor response ([1]; castrated CB17 SCID mice, enzalutamide 10 mg/kg oral gavage five times weekly, AU-24118 15 mg/kg oral gavage three times weekly) of the same compound?
A: regression in every tumor; also recorded: regressed every tumor in the cohort

Q: And the “sensitivity of AUR-3 cells versus WT” value (22Rv1 AUR-3 cells; 22Rv1 AUR-3 cells (Fig. S5 E and F))?
A: dramatically less sensitive

Q: What about the IC50 (22Rv1 AUR-3 cells; Homo sapiens, 22Rv1, Fig. S5F, 22Rv1 AUR-3) of the same compound?
A: 458 nM

Q: What about the “H&E staining of spleen, kidney and liver” value ([2]; CB17 SCID mice, 15 mg/kg) of the same compound?
A: no discernible toxicity in normal tissues

Q: And the “blood panel of liver and kidney function (ALT, AST, BUN, CREA)” value ([2]; CB17 SCID mice, 25 d treatment, 15 mg/kg)?
A: slight elevation in alanine transaminases

Q: What about the “tolerability (body weight, morbidity)” value ([2]; CB17 SCID tumor-free mice, 20 mg/kg three times weekly) of the same compound?
A: noticeable weight loss after the first week, culminating in morbidity or fatality by the second week

Q: And the “tolerability (body weight)” value ([2]; CB17 SCID tumor-free mice, up to 15 mg/kg three times weekly)?
A: well-tolerated responses

Q: What about the MTD ([2]; mouse, in vivo, oral, CB17 SCID mice, dosed three times weekly) of the same compound?
A: 15 mg/kg

Q: And the bioavailability ([3]; CD1, mouse, oral, mice, i.v. 1 mg/kg, p.o. 30 mg/kg, read-out: Oral bioavailability (%F))?
A: 33.4%

Q: And the AUC(0-inf) [3, 5]?
A: 1680 ng·h/mL

Q: What about the AUC(0-t) [3, 5] of the same compound?
A: 1630 ng·h/mL

Q: And the half-life ([3]; mouse, iv, CD1 Mice, I.V. 1mg/kg, read-out: Beta t1/2 (converted))?
A: 4.76 h

Q: What about the clearance ([3]; mouse, iv, CD1 Mice, I.V. 1mg/kg, read-out: CI (Clearance)) of the same compound?
A: 10 mL/min/kg

Q: And the Cmax [3, 5]?
A: 443 ng/mL

Q: And the Vd ([3]; mouse, iv, CD1 Mice, I.V. 1mg/kg, read-out: Vdss)?
A: 3.3 L/kg

Q: What about the AUC(0-t) [3, 6] of the same compound?
A: 16300 ng·h/mL

Q: What about the Cmax [3, 6] of the same compound?
A: 1030 ng/mL

Q: And the Tmax [3, 7]?
A: 6 h

Q: And the Cmax [3, 7]?
A: 345 ng/mL

Q: What about the AUC(0-t) [3, 8] of the same compound?
A: 14700 ng·h/mL

Q: What about the Tmax [3, 8] of the same compound?
A: 3 h

Q: And the Cmax [3, 8]?
A: 1190 ng/mL

Q: And the Tmax ([3]; mouse, mice, oral, 100mg/kg, dose escalation (Fig. 1G))?
A: 4 h
